Results taken from patent publication US20240174680A1, “CDK2 INHIBITORS AND METHODS OF USING THE SAME” (Cedilla Therapeutics, Inc., priority 2021, published 2024).

Legend:
CDK2/Cyclin E1 [1] = target: T1, CDK2/Cyclin E1 (Homo sapiens, UniProt P24941); test: HotSpot kinase inhibition assay (radiometric, Histone H1 substrate); assay type: biochemical; conditions: 10 μM ATP, read-out: Kinase Assay (CDK2/CCNE): IC50
Experimental: Inhibition of CDK2/CCNE1 activities in the presence of compounds of the present disclosure was evaluated using the HotSpot™ assay (proprietary to Reaction Biology Corporation). In the assay, CDK2/Cyclin E1 (Signalchem C29-18G) catalyzed the transfer of radioactive phosphate to amino acid residues of Histone H1 (Sigma, H5505), which are detected radiometrically.
Reactions contained 20 mM HEPES pH 7.5, 10 mM MgCl2, 1 mM EGTA, 2 mM DTT, 0.02% Brij35, 0.02 mg/mL BSA, 0.1 mM Na3VO4, 1% DMSO, 1.5 nM CDK2/Cyclin E1, 10 μM ATP, and 20 μM Histone H1.
CDK2/Cyclin E1 and Histone H1 were mixed in reaction buffer. To this mixture dose titrations of inhibitors in 100% DMSO were added in by acoustic transfer. The compound mixtures were incubated for 20 minutes, then the kinase reactions were initiated by the addition of a mixture of ATP and ^33P ATP for final concentrations of 10 μM total ATP, 20 μM Histone H1, and 1.5 nM CDK2/Cyclin E1. The reactions were carried out for 120 minutes, then spotted on a P81 ion exchange filter paper, and extensively washed with 0.75% phosphoric acid. The resulting radioactive counts were normalized to yield % activity, plotted against compound concentration, and fit to a four-parameter equation to determine the IC50 for each compound.

CDK2/Cyclin E1 [2] = target: T1, CDK2/Cyclin E1; test: CDK2/Cyclin E1 Caliper LabChip EZ Reader mobility shift assay; assay type: biochemical; design: purchased Eurofins 14-475; conditions: read-out: Caliper Assay (CDK2/CCNE1): IC50
Summary of the method: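 Mobility-shift kinase assay: compound titrations preincubated 30 min with enzyme and ATP, reaction started with 5-FAM-QSPKKG-CONH2 peptide. Final 2.5 nM CDK2/Cyclin E1, 100 μM ATP, 1.5 μM peptide, HEPES pH 7.5; stopped with EDTA after 100 min. IC50 from four-parameter fit of normalized conversion ratio.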

Structure (SMILES)	IC50 (CDK2/Cyclin E1 [1]) [µM]	IC50 (CDK2/Cyclin E1 [2]) [µM]
CNC(=O)[C@@H](NC(=O)[C@H]1CN(C(=O)c2cnn(Cc3ccccc3)c2)CC12CN(C(=O)C1CC(C)(C)C1)C2)[C@@H](C)OCc1ccccc1 [I-4B]	> 100	–
CNC(=O)[C@@H](NC(=O)[C@@H]1CN(C(=O)c2cnn(Cc3ccccc3)c2)CC12CN(C(=O)C1CC(C)(C)C1)C2)[C@@H](C)OCc1ccccc1 [I-4A]	10 to 100	–
CNC(=O)[C@@H](NC(=O)C1CN(C(=O)c2cnn(Cc3ccccc3)c2)CC12CN(C(=O)C1CC1(C)C)C2)[C@@H](C)O (some centres unmarked) [I-88 mixture]	10 to 100	–
C[C@H](CNC(=O)C1CN(C(=O)c2cnn(Cc3ccccc3)c2)CC12CN(C(=O)C1CC1(C)C)C2)OCc1ccccc1 (some centres unmarked) [I-7]	≤ 1	–
CNC(=O)[C@H](COCc1ccccc1)NC(=O)C1CN(C(=O)c2cnn(Cc3ccccc3)c2)CC12CN(C(=O)C1CC1(C)C)C2 (some centres unmarked) [I-1]	1 to 10	–
CNC(=O)[C@@H](NC(=O)[C@@H]1CN(C(=O)c2cn[nH]c2)CC12CN(C(=O)C1CC1(C)C)C2)[C@@H](C)OCc1ccccc1 (some centres unmarked) [I-5A]	≤ 1	–
CNC(=O)[C@@H](NC(=O)[C@H]1CN(C(=O)c2cn[nH]c2)CC12CN(C(=O)C1CC1(C)C)C2)[C@@H](C)OCc1ccccc1 (some centres unmarked) [I-5B]	1 to 10	–
CNC(=O)[C@@H](NC(=O)C1CN(C(=O)c2cnn(Cc3ccccc3)c2)CC12CN(C(=O)C1CC1(C)C)C2)[C@@H](C)OCC1CCCCC1 (mixture of isomers) [I-12]	≤ 1	–
CNC(=O)[C@@H](NC(=O)C1CN(C(=O)c2cnn(Cc3ccccc3)c2)CC12CN(C(=O)[C@H]1CC1(C)C)C2)[C@@H](C)OCc1ccccn1 (some centres unmarked) [I-257]	–	1 to 10
C[C@@H](OCC1CCCCC1)[C@H](NC(=O)[C@H]1CN(C(=O)c2cnn(Cc3ccccc3)c2)CC12CN(C(=O)[C@H]1CC1(C)C)C2)C(=O)N1CC(C)(C)C1 [I-153B]	–	1 to 10
CNC(=O)[C@@H](NC(=O)[C@H]1CN(C(=O)c2sc(COC)nc2C)CC12CN(C(=O)[C@H]1CC1(C)C)C2)[C@@H](C)OCC1CCCCC1 [I-162B]	–	> 10
C[C@@H](OCC1CCC(F)(F)CC1)[C@H](NC(=O)[C@@H]1CN(C(=O)c2cncs2)CC12CN(C(=O)[C@H]1CC1(C)C)C2)C(=O)N1CCC(C)(C)CC1 [I-386]	–	≤ 0.01
CNC(=O)[C@@H](NC(=O)[C@@H]1CN(Cc2cnco2)CC12CN(C(=O)[C@H]1CC1(C)C)C2)[C@@H](C)OCc1ccccc1 [I-78A, (S)—N-((2S,3R)-3-(benzyloxy)-1-(methylamino)-1-oxobutan-2-yl)-2-((S)-2,2-dimethylcyclopropane-1-carbonyl)-6-(oxazol-5-ylmethyl)-2,6-diazaspiro[3.4]octane-8-carboxamide]	–	> 10
C[C@@H](OCc1ccc(Cl)cc1)[C@@H](CO)NC(=O)[C@@H]1CN(C(=O)c2cncs2)CC12CN(C(=O)[C@H]1CC1(C)C)C2 [I-404]	–	0.01 to 0.1
CNC(=O)[C@@H](NC(=O)[C@@H]1CN(C(=O)c2scnc2C)CC12CN(C(=O)[C@H]1CC1(C)C)C2)[C@@H](C)OCC1CCCCC1 [I-160A]	–	0.01 to 0.1
CNC(=O)[C@@H](NC(=O)[C@@H]1CN(C(=O)c2cnn(Cc3ccccc3)c2)CC12CN(C(=O)[C@H]1CC1(C)C)C2)C1(OCC2CCCCC2)CC1 [I-396]	–	≤ 0.01
CNC(=O)[C@@H](NC(=O)[C@H]1CN(C(=O)c2cnc(C3CC3)s2)CC12CN(C(=O)[C@H]1CC1(C)C)C2)[C@@H](C)OCC1CCCCC1 [I-178B]	–	> 10
C[C@@H](OCC1CCC(F)(F)CC1)[C@H](NC(=O)[C@@H]1CN(C(=O)c2cn[nH]c2)CC12CN(C(=O)[C@H]1CC1(C)C)C2)C(=O)N1CCC(F)(F)CC1 [I-228A]	–	≤ 0.01

Structure (SMILES)	IC50 (CDK2/Cyclin E1 [1]) [µM]	IC50 (CDK2/Cyclin E1 [2]) [µM]
C[C@@H](OCC1CCCCC1)[C@H](NC(=O)[C@@H]1CN(C(=O)c2cnn(Cc3ccccc3)c2)CC12CN(C(=O)[C@H]1CC1(C)C)C2)C(=O)N1CCC(c2nccs2)CC1 [I-445]	–	≤ 0.01
CNC(=O)[C@@H](NC(=O)[C@@H]1CN(C(=O)c2cncs2)CC12CN(CC(C)(C)C)C2)[C@@H](C)OCC12CCC(CC1)OC2 [I-347]	–	> 10
Cc1cc(C(=O)N2CC(C(=O)N[C@H](C(=O)N3CCCCC3)[C@@H](C)OCC3CCCCC3)C3(C2)CN(C(=O)[C@H]2CC2(C)C)C3)[nH]n1 (some centres unmarked) [I-264]	–	1 to 10
COC[C@H]1CCCN(C(=O)[C@@H](NC(=O)[C@@H]2CN(C(=O)c3cncs3)CC23CN(S(=O)(=O)C(C)(C)C)C3)[C@@H](C)OCC2CCCCC2)C1 [I-447, (S)-2-(tert-butylsulfonyl)-N-((2S,3R)-3-(cyclohexylmethoxy)-1-((S)-3-(methoxymethyl)piperidin-1-yl)-1-oxobutan-2-yl)-6-(thiazole-5-carbonyl)-2,6-diazaspiro[3.4]octane-8-carboxamide]	–	0.1 to 1
CCCCC1CC1C(=O)N1CC2(CN(C(=O)c3cnn(Cc4ccccc4)c3)C[C@@H]2C(=O)N[C@H](C(=O)NC)[C@@H](C)OCc2ccccc2)C1 (some centres unmarked) [I-94B]	–	> 10
C[C@@H](OCC1CCCCC1)[C@H](NC(=O)[C@@H]1CN(C(=O)c2cnn(Cc3ccccc3)c2)CC12CN(C(=O)[C@H]1CC1(C)C)C2)C(=O)N1CCC[C@H](C(=O)O)C1 [I-483]	–	≤ 0.01
C[C@@H](OCC1CCC(F)(F)CC1)[C@H](NC(=O)[C@@H]1CN(C(=O)c2cn[nH]c2)CC12CN(C(=O)[C@H]1CC1(C)C)C2)C(=O)N1CCOCC1 [I-301, (S)—N-((2S,3R)-3-((4,4-difluorocyclohexyl)methoxy)-1-morpholino-1-oxobutan-2-yl)-2-((S)-2,2-dimethylcyclopropane-1-carbonyl)-6-(1H-pyrazole-4-carbonyl)-2,6-diazaspiro[3.4]octane-8-carboxamide]	–	≤ 0.01
CC1(C)C[C@@H]1C(=O)N1CC2(CN(C(=O)c3cncs3)C[C@H]2C(=O)N[C@@H](COCC2CCCCC2)C(=O)N2CCCCC2)C1 [I-286]	–	0.01 to 0.1
CNC(=O)[C@@H](NC(=O)[C@@H]1CN(C(=O)c2cnn(Cc3ccccc3)c2)CC12CN(C(=O)[C@H]1CC1(C)C)C2)[C@@H](C)OCC(F)(F)F [I-204]	–	1 to 10
C[C@@H](OCC12CCC(CC1)OC2)[C@H](NC(=O)[C@@H]1CN(C(=O)c2cncs2)CC12CN(C(=O)[C@H]1CC1(C)C)C2)C(=O)N1CCC2(CC1)COC2 [I-336]	–	≤ 0.01
CO[C@H]1COCC[C@H]1NC(=O)[C@@H]1CN(C(=O)c2cnn(Cc3ccccc3)c2)CC12CN(C(=O)[C@H]1CC1(C)C)C2 [I-134A]	–	> 10
CNC(=O)[C@@H](NC(=O)[C@@H]1CN(C(=O)c2cnn(Cc3ccccc3)c2)CC12CN(C(=O)C(C)(C)C)C2)[C@@H](C)OCC1CCCCC1 [I-174A]	–	0.01 to 0.1
C[C@@H](OCC1CCOCC1)[C@H](NC(=O)[C@@H]1CN(C(=O)c2cncs2)CC12CN(C(=O)[C@H]1CC1(C)C)C2)C(=O)N1CCC(F)(F)CC1 [I-288]	–	0.01 to 0.1
C[C@@H](OCC1CCC2(CCC2)CC1)[C@H](NC(=O)[C@@H]1CN(C(=O)c2cnn(Cc3ccccc3)c2)CC12CN(C(=O)[C@H]1CC1(C)C)C2)C(=O)N1CCC(c2cnc[nH]2)CC1 [I-444]	–	≤ 0.01
CC1(C)C[C@@H]1C(=O)N1CC2(CN(C(=O)c3cnn(Cc4ccccc4)c3)C[C@@H]2C(=O)NC2CCN(C(=O)c3ccccc3)CC2)C1 [I-61B]	–	> 10
C[C@@H](OCC1CCCCC1)[C@H](NC(=O)[C@@H]1CN(C(=O)c2cncs2)CC12CN(C(=O)[C@H]1CC1(C)C)C2)C(=O)N1CCNCC1 [I-328]	–	≤ 0.01
CNC(=O)[C@@H](NC(=O)[C@@]1(C)CN(C(=O)c2cnn(Cc3ccccc3)c2)CC12CN(C(=O)[C@H]1CC1(C)C)C2)[C@@H](C)OCC1CCCCC1 [I-499B]	–	> 10
